Like-named read-outs stand apart in the source and are kept apart here.
Tests used:
[1] = system: rat spinal cord (gray matter, white matter, cortical spinal tract); conditions: for *T1CST: cortical spinal tract in spinal cord; for *T1CST / T1GM / T1WM: 1 M MnCl2 0.2 μL bilateral intracortical, 9.4 T; for T1GM: gray matter of spinal cord, mean±SD, four rats; for T1WM: white matter of spinal cord
Description: (§1) The experiments were conducted on twelve Sprague-Dawley rats weighing between 300 and 350 g under a protocol approved by the University of Kansas Medical Center Institutional Animal Care and Use Committee. Six rats were studied without electrical stimulation in the cortex and served as the control group. The remaining six rats formed the stimulation group.
The syringe was mounted on a micropositioner attached to a stereotaxic frame. The tip of the glass pipette was lowered perpendicular to the brain surface at the center of the first burr hole and inserted into the cortex through the exposed dura one millimeter below the pial surface. The syringe was emptied slowly to deliver 0.2 μL of the solution over a period of five minutes. To prevent backflow of solution, the pipette was left in place for another five minutes prior to withdrawal. This procedure was repeated for the contralateral motor area through the second burr hole.
To eliminate this problem, the burr holes in the skull of the rat from the stimulation group were first carefully drained of fluid. Electrical stimulation was then applied through a 1 mm diameter stainless steel electrode with the titanium screw serving as reference. The electrode was connected to a DS7 Digitimer constant current stimulator (Digitimer Ltd., Hertfordshire, England) and lowered through the first burr hole on the same side as the screw until it touched to dura. A Grass S48 stimulator (Grass Medical Instruments, Quincy, Mass.) generated the stimulus pulse sequence used to externally trigger the constant current stimulator. Trains of biphasic stimuli (each phase 0.2 ms, negative first) were applied at 100 Hz for an “on” period of 5 seconds followed by an “off” period of 5 seconds. […] Once threshold was determined, stimulation was applied at approximately twice the threshold for 90 minutes. If the strength of the evoked movement declined noticeably, frequency and current values were increased to maintain a constant motor response. These procedures were repeated for the opposite cortex through a second burr hole. With these settings, the total stimulation time was 180 minutes, 90 minutes for each side of the cortex. Immediately after stimulation, the electrodes were removed, and the skin was closed tightly with suture. The animal was then left to recover in its cage.
The animals were anesthetized using spontaneous inhalation of 4% isoflurane for induction, followed by a mixture of 1.5% isoflurane, 30% oxygen, and air delivered through a nose mask. The rat's head was stabilized on a Plexigas holder and positioned into a 6 cm inner diameter volume coil for MRI scanning on a 9.4 T horizontal Varian scanner (Varian Inc., Palo Alto, Calif.). While in the scanner, the physiological condition of the rat was monitored using ECG, respiratory and temperature probes that were connected to an MR-compatible small animal monitoring and gating system (Model 1025, SA Instruments, Inc., Stony Brook, N.Y.). The rat's temperature was kept at about 37° C. by circulating warm air with 40% humidity using a 5 cm diameter plastic tube fitted to the back door of the magnet bore.
The resulting data set consisted of axial images acquired independently at eight different TR values: 50, 100, 250, 500, 750, 2000, 3500, and 6000 ms with averages=10, 6, 6, 2, 2, 2, 2 and 2, respectively, and TE=12 ms. The other acquisition parameters were image matrix=128×128, field-of-view (FOV)=23×23 mm^2 and slice thickness=4 mm. The acquired data were analyzed quantitatively to produce a parametric T1 map of the spinal cord by following the procedures described previously in Bilgen et al., Ex vivo magnetic resonance imaging of rat spinal cord at 9.4 T, Magn. Reson. Imaging 23:601-605 (2005).
T1-maps were produced for four rats from each of the stimulated and control groups.

cortical spinal tract = conditions: 24 hours after injection
Description: as §1
The syringe was mounted on a micropositioner attached to a stereotaxic frame. The tip of the glass pipette was lowered perpendicular to the brain surface at the center of the first burr hole and inserted into the cortex through the exposed dura one millimeter below the pial surface. […]
To eliminate this problem, the burr holes in the skull of the rat from the stimulation group were first carefully drained of fluid. […] Once threshold was determined, stimulation was applied at approximately twice the threshold for 90 minutes. […]
The animals were anesthetized using spontaneous inhalation of 4% isoflurane for induction, followed by a mixture of 1.5% isoflurane, 30% oxygen, and air delivered through a nose mask. […] While in the scanner, the physiological condition of the rat was monitored using ECG, respiratory and temperature probes that were connected to an MR-compatible small animal monitoring and gating system (Model 1025, SA Instruments, Inc., Stony Brook, N.Y.). […]

[2] = control rats without electrical stimulation

manganese chloride
*T1CST [1, 2]: 1.43 ± 0.09 s | *T1CST ([1]; electrically stimulated rats): 1.24 ± 0.08 s | T1GM [1, 2]: 1.55 ± 0.05 s | T1GM ([1]; electrically stimulated rats): 1.54 ± 0.06 s | T1 in the cortical spinal tract shorter in electrically stimulated rats compared to controls ([1]; stimulated vs non-stimulated rats, both given MnCl2): about 20% | T1WM [1, 2]: 1.53 ± 0.06 s | T1WM ([1]; electrically stimulated rats): 1.51 ± 0.07 s | manganese enhancement of the cortical spinal tract (cortical spinal tract; non-stimulated rat): fades away as the cortical spinal tract approaches the spinal cord | labeling of the cortical spinal tract in the spinal cord (cortical spinal tract; with electrical stimulation of the cortex): more robust labeling of the cortical spinal tract in the spinal cord

Reference: US20080081021A1, “Manganese-enhanced magnetic resonance imaging of neurons using electrical stimulation” (priority 2006, published 2008)
